# Experiments:
# Echinochloa crus-galli [1] = experiment: Herbicidal activity against Echinochloa crus-galli (barnyard grass) assessed as root inhibition at 100 mg/l; type: functional
# Echinochloa crus-galli [2] = experiment: Herbicidal activity against Echinochloa crus-galli (barnyard grass) assessed as stalk inhibition at 100 mg/l; type: functional
# [3] = test system: Brassica rapa subsp. oleifera; experiment: Herbicidal activity against Brassica rapa subsp. oleifera assessed as root inhibition at 100 mg/l; type: functional
# Echinochloa crus-galli [4] = experiment: Herbicidal activity against Echinochloa crus-galli (barnyard grass) assessed as stalk inhibition; type: functional, organism-based
# [5] = test system: Brassica rapa subsp. oleifera; experiment: Herbicidal activity against Brassica rapa subsp. oleifera assessed as root inhibition; type: functional, organism-based
smiles,measurement,setting,value
CCCCCCC1NC(=O)/C(=C(/C)O)C1=O (centres undefined),inhibition at 100 µg/mL,Echinochloa crus-galli [1],47.8%
same,inhibition at 100 µg/mL,Echinochloa crus-galli [2],66.9%
same,inhibition at 100 µg/mL,[3],43.1%
same,EC50,Echinochloa crus-galli [4],72.7 µg/mL
COc1ccc(CC2NC(=O)/C(=C(/C)O)C2=O)cc1 (centres undefined),inhibition at 100 µg/mL,Echinochloa crus-galli [1],32.8%
same,inhibition at 100 µg/mL,Echinochloa crus-galli [2],41.2%
same,inhibition at 100 µg/mL,[3],62.9%
C/C(O)=C1/C(=O)NC(Cc2ccc(Cl)cc2Cl)C1=O (centres undefined),inhibition at 100 µg/mL,Echinochloa crus-galli [1],31.6%
same,inhibition at 100 µg/mL,Echinochloa crus-galli [2],19.1%
same,inhibition at 100 µg/mL,[3],59.3%
COc1ccc(C(=O)CC2NC(=O)/C(=C(/C)O)C2=O)cc1 (centres undefined),inhibition at 100 µg/mL,Echinochloa crus-galli [1],61.5%
same,inhibition at 100 µg/mL,Echinochloa crus-galli [2],62.6%
same,inhibition at 100 µg/mL,[3],45.9%
same,EC50,Echinochloa crus-galli [4],94.4 µg/mL
C/C(O)=C1/C(=O)NC(CC(=O)c2ccccc2)C1=O (centres undefined),inhibition at 100 µg/mL,Echinochloa crus-galli [1],47.9%
same,inhibition at 100 µg/mL,Echinochloa crus-galli [2],36.4%
same,inhibition at 100 µg/mL,[3],66.9%
C/C(O)=C1/C(=O)NC(C/C=C/c2ccccc2)C1=O (centres undefined),inhibition at 100 µg/mL,Echinochloa crus-galli [1],54%
same,inhibition at 100 µg/mL,Echinochloa crus-galli [2],42.5%
same,EC50,[5],39.2 µg/mL
same,inhibition at 100 µg/mL,[3],90.4%
CCCCC1NC(=O)/C(=C(/C)O)C1=O (centres undefined),inhibition at 100 µg/mL,Echinochloa crus-galli [1],38.5%
same,inhibition at 100 µg/mL,Echinochloa crus-galli [2],32.3%
same,inhibition at 100 µg/mL,[3],46.3%
C/C(O)=C1/C(=O)NC(Cc2ccc(Cl)cc2)C1=O (centres undefined),inhibition at 100 µg/mL,Echinochloa crus-galli [1],49.6%
same,inhibition at 100 µg/mL,Echinochloa crus-galli [2],37.8%
same,EC50,[5],25.5 µg/mL
same,inhibition at 100 µg/mL,[3],89.7%
C/C(O)=C1/C(=O)NC(Cc2ccccc2Cl)C1=O (centres undefined),inhibition at 100 µg/mL,Echinochloa crus-galli [1],37.3%
same,inhibition at 100 µg/mL,Echinochloa crus-galli [2],35.7%
same,inhibition at 100 µg/mL,[3],41.8%
C/C(O)=C1/C(=O)NC(Cc2ccc([N+](=O)[O-])cc2)C1=O (centres undefined),inhibition at 100 µg/mL,Echinochloa crus-galli [1],64.3%
same,inhibition at 100 µg/mL,Echinochloa crus-galli [2],41.6%
same,inhibition at 100 µg/mL,[3],45.7%
